In PubChem BioAssay AID179 (DTP/NCI, 2004):
Calls of active or inactive are those of the source.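 Rule for the calls: active = compounds giving half or more protection of infected cells from virus-caused growth loss, again on retest; inactive = the rest.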

Test system: CEM cells HIV-1 protection, formazan growth assay
Test: NCI AIDS Antiviral Assay
Conditions: for IC50: measured here: growth of uninfected CEM cells
How it was run: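 Soluble formazan readout of cell growth; CEM cells ± HIV-1; 5 drug concs. ≥50% protection → retest; ≥50% again = moderately active; reproducible 100% = confirmed active.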

SMILES	EC50	IC50	outcome
O=C1NCN(C2CCCCC2)CN1	> 200 µM	> 200 µM	
COc1ccc(C2=NOC(N)(c3ccc(OC)cc3)C2)cc1 (stereo unspecified)	> 200 µM	> 200 µM	
Cc1c(/C=N/NC(=O)c2ccccc2)c(=O)n(-c2ccccc2)n1C	> 200 µM	> 200 µM	
Clc1ccc(CSc2ccc3nncc(SCc4ccc(Cl)cc4)c3c2)cc1	> 60.3 µM	> 60.3 µM	
CC(=O)Oc1cc2c(cc1OC(C)=O)[C@H]1CC[C@]3(C)[C@@H](OC(C)=O)CC[C@H]3[C@@H]1CC2	> 200 µM	10 µM	
OC12c3ccccc3C1CCCCCC21OCCCO1 (stereo unspecified)	> 200 µM	> 200 µM	
Cc1noc2c1NC(=O)OCC2	11 µM	490 µM	
COC(=O)[C@H](Cc1ccccc1)NC(=O)N1CCN(C(=O)N[C@@H](Cc2ccccc2)C(=O)OC)CCN(C(=O)N[C@@H](Cc2ccccc2)C(=O)OC)CC1	> 200 µM	> 200 µM	
C[n+]1c(-c2ccc(/C=N\NC(=O)N/N=C/c3ccc(-c4cn5ccccc5[n+]4C)cc3)cc2)cn2ccccc21	36.3 µM	47.9 µM	
O=C1c2ccccc2C(=O)c2c1ccc1conc21			inactive
COC(=O)c1c(-c2ccccc2)cc2c3cc(-c4ccccc4)c(C(=O)OC)n3c3ccccc3n12	> 28.8 µM	> 28.8 µM	
N#Cc1cc2c(n(C3OC(CO)C(O)C(O)C3O)c1=S)CCCCC2 (stereo unspecified)	> 200 µM	> 200 µM	
O=C1c2ccccc2C(=O)C12CCc1ccccc12			inactive
Nc1nc(Cl)cc(NCCCCCNc2cc(Cl)nc(N)n2)n1			inactive
Nc1ccc(S(=O)(=O)Nc2ccccc2)cc1	> 200 µM	> 200 µM	
O=C(NN1C(=O)C(Cl)C1c1cccc(O)c1)c1ccccc1O (stereo unspecified)	> 151 µM	141 µM	

SMILES	EC50	IC50	outcome
O=S(O)CCCCSSSCCCCS(=O)O	> 200 µM	2.69 µM	
COc1ccc2c(c1)CCCN1CCc3cc(OC)c(OC)cc3C21 (stereo unspecified)	> 200 µM	> 200 µM	
O=C1CCN2CCCC1C2 (stereo unspecified)	> 1410 µM	1290 µM	
COc1cc(OCc2nc3cc(C(F)(F)F)ccc3nc2-c2ccccc2)cc(OC)c1OC	> 200 µM	89.1 µM	
CCOC(=O)C(CC[C@H]1c2[nH]c3ccccc3c2C[C@@H](C#N)N1C(=O)C(F)(F)F)C(=O)OCC	> 20.9 µM	> 20.9 µM	
Cc1ccccc1NC(=O)C1C(=O)N(c2ccccc2C)C(=O)/C1=N\N (stereo unspecified)			inactive
O=C(O)c1cc(O)c(O)c(O)c1	> 200 µM	11 µM	
CC1OC(n2cc(C(F)(F)F)c(=O)[nH]c2=O)C=CC1O (stereo unspecified)	> 851 µM	148 µM	
NC1=NC(=O)/C(=C/c2ccccc2[N+](=O)[O-])C(N)=N1			inactive
O1[SiH]2[SiH]3O[SiH]3[SiH]3O[SiH]3[SiH]12 (stereo unspecified)			inactive
O=c1c(Cl)c(Cl)cnn1CCc1ccncc1	> 132 µM	7.08 µM	
COC(=O)/C(=C(/C)c1ccco1)P(=O)(OC)OC	> 200 µM	> 200 µM	
CC(=O)O[C@H]1[C@H](OC(=O)CC(C)(O)CC(=O)O)C[C@]2(C)C3=C(CCC2C1(C)C)[C@]1(C)CC[C@H]([C@H]2CC[C@H](C(C)(C)O)OC2O)[C@@]1(C)[C@@H](O)C3 (stereo partly specified)	> 100 µM	49 µM	
CC(C)c1cc(C(C)C)c(B(c2ccccc2)c2ccccc2)c(C(C)C)c1Br	> 200 µM	> 200 µM	
CC1=NN(c2ccccc2)C(=O)/C1=C1\SC(c2ccccc2)(c2ccccc2)c2ccccc21	> 200 µM	> 200 µM	
